Measured values from patent publication US20250026741A1, “INHIBITORS OF THE ONCOGENIC SHP2 PHOSPHATASE AND USES THEREOF” (Sanford Burnham Prebys Medical Discovery Institute, priority 2021, published 2025).

Experiments:
[1] = tested on: U-937 AML cells harboring G60R oncogenic mutation in SHP2; assay: Cell viability assay, U-937 (SHP2 G60R); assay type: cell-based; details: U-937 cells (SHP2 G60R), 0.123 to 30 μM, 3 d
Description: (§1) Oncogenic gain-of-function mutations in SHP2 drive leukemogenesis in a significant number of leukemia patients. However, due to their unique mechanism of action, the existing SHP2 allosteric inhibitors lack activity against the most common SHP2 oncogenic variants. Thus, we tested whether #02 can inhibit the growth of leukemia cells expressing oncogenic SHP2 variants. […] Using the U-937 AML cell line, which harbors a G60R oncogenic mutation in SHP2, we treated cells with either #02 or RMC-4550 at various concentrations, ranging from 0.123 to 30 μM (FIG. 4A). […] We also assessed the effects of #02 and RMC-4550 on ERK1/2 activation in the SHP2 mutant U-937 cell line. Similar to the immunoblot experiments described above, U-937 AML cells were treated with either vehicle control (DMSO), #02 (1, 3, 10, or 30 μM), or with RMC-4550 (1 μM) for 24 h and processed for p-ERK1/2 immunoblot analysis (FIG. 4B).
(§2) Viability of AML, esophageal carcinoma, and TF-1 cells was assessed using the ATP-depletion assay CellTiter-Glo® (Promega). Cells were harvested at 1×10^6/mL to 2×10^6 cells/mL with cell numbers determined by trypan blue using the Countess Cell counter (Thermo Scientific) and resuspended in culture media. […] Luminescence was read on a Tecan Spark® Multimode Microplate Reader and data analyzed using Graph Pad Prism software.

[2] = tested on: patient-derived AML cells; assay: Viability of AML patient-derived cells; assay type: cell-based, human; details: 10 μM, two patient samples, 2 d, 4 d, or 6 d
Description: Patient-derived AML cells were obtained from Carol Burian and Dr. James Mason (Scripps MD Anderson, La Jolla, CA) under approved IRB protocol 13-6180. Peripheral blood mononuclear cells (PBMCs) were isolated by traditional Ficoll-Paque™ PLUS (17-1440-02, GE Healthcare) centrifugation according to the manufacturer's instructions, and red blood cells were lysed using RBC Lysis Buffer (Alfa Aesar, cat. #J62990). Final PBMCs were resuspended in Bambanker serum-free freezing medium (Wako Pure Chemical Industries, Ltd.) and stored frozen before cell viability was assessed as described below.
as §2, with “media. 3K cells (in […]) were seeded in a 384-well format white, clear bottom microplate (#781098, Greiner) spotted with test compound or vehicle control (DMSO) using an Echo 555 Liquid Handler.” for “media.”

[3] = tested on: p-ERK1/2 in U-937 AML cells (SHP2 G60R); assay: Phospho-ERK1/2 immunoblot analysis, U-937; assay type: cell-based; details: U-937, 24 h; #02 1, 3, 10, 30 μM; RMC-4550 1 μM
Description: as §1
Total protein extracts were prepared in modified RIPA lysis buffer (25 mM Tris-HCl, pH 7.4, 10% glycerol, 0.2% Triton™ X-100, 150 mM NaCl, 2 mM Na3VO4, 1 mM EDTA) containing a protease inhibitor cocktail (Roche Applied Science, Indianapolis, IN). […] Densitometric quantitation of immunoblots was performed using Image Studio Lite Software. Changes of phosphorylated ERK1/2 to total ERK1/2 rations are expressed as percentage of the vehicle-treated controls. […]

[4] = tested on: p-ERK1/2 in MOLM-13 AML cells; assay: Phospho-ERK1/2 immunoblot analysis, MOLM-13; assay type: cell-based; details: MOLM-13, 3 h treatment; #02 3, 10, 30 μM; RMC-4550 1 μM
Experimental: Because SHP2 activity is critical for ERK activation, we used phospho-ERK1/2 (p-ERK1/2) as a more direct readout of SHP2 inhibitor efficacy. […] However, a greater effect of #02 was observed after 24 h treatment. […] This p-ERK rebound in MOLM-13 cells treated with RMC-4550 is reminiscent of previously reported data from human hepatoma Hep3B cells treated with SHP099.
Total protein extracts were prepared in modified RIPA lysis buffer (25 mM Tris-HCl, pH 7.4, 10% glycerol, 0.2% Triton™ X-100, 150 mM NaCl, 2 mM Na3VO4, 1 mM EDTA) containing a protease inhibitor cocktail (Roche Applied Science, Indianapolis, IN). Equal amounts of protein were separated on 4-12% (p-ERK1/2 blots) or 4-20% (SHP2 blots) Bis-Tris gels by SDS-PAGE and transferred to nitrocellulose (p-ERK1/2 blots) or 0.2 μm PVDF (SHP2 blots) membranes. Membranes were blocked in 5% dry milk (Bio-Rad, Hercules, CA) in TBS-Tween 20 (0.1% vol/vol; TBS-T) for 1 h at room temperature. Protein-bound membranes were incubated with indicated primary antibody overnight at 4° C. After washing three times with TBS-T, membranes were incubated for 1 h with horseradish peroxidase-conjugated secondary antibody, then visualized by an ECL Prime detection system (GE Healthcare). Immunoblotting experiments were carried out at least three times and representative images are shown. Densitometric quantitation of immunoblots was performed using Image Studio Lite Software. Changes of phosphorylated ERK1/2 to total ERK1/2 rations are expressed as percentage of the vehicle-treated controls. The following antibodies were used: Phospho-Erk1/2 Ab, Cell Signaling, #9101S; total Erk1/2 Ab, Cell Signaling, #9102S; SHP2 Ab, Bethyl, A301-544A, lot #1; GAPDH (14C10) mAb, Cell Signaling, #2118S, lot #14.

[5] = tested on: MLL-AF10 leukemia cells expressing wild-type SHP2; assay: Cell viability assay, MLL-AF10 cells expressing wild-type SHP2; assay type: cell-based, mouse
Experimental: (§3) Cell viability assays of SHP099, #01, and #02 against mouse MLL-AF10 leukemia cells were conducted. Two MLL-AF10 cell lines were employed, one expressing wild-type SHP2, and the other expressing E76K mutant SHP2.

[6] = tested on: BT-549 triple-negative breast cancer cells; assay: TNBC cell viability assay (CellTiter-Glo), BT-549; assay type: cell-based; details: BT-549 cells, various concentrations
Experimental: (§4) Next, we performed an 11-day colony formation assay with TNBC cells treated with #02 or SHP099 at 5, 10, or 20 μM (FIG. 3D).
(§5) Triple-negative breast cancer cell viability was assessed using the ATP-depletion assay CellTiter-Glo (Promega). Briefly, 2.5K cells in […] media (RPMI+10% FBS+1× Penicillin-Streptomycin (Omega Scientific)) were seeded per well of a 384-well tissue culture treated plate (Greiner). 25 nL of 1000× test compound were added using a Labcyte Echo acoustic dispenser and the cells incubated for 5 days before addition of […] of CellTiter-Glo reagent as described by the manufacturer. Luminescence was detected on a BioTek Synergy 2 microplate reader and the values normalized to those of vehicle (DMSO) treated controls before being plotted using GraphPad Prism.

[7] = tested on: MDA-MB-468 triple-negative breast cancer cells; assay: TNBC cell viability assay (CellTiter-Glo), MDA-MB-468; assay type: cell-based; details: MDA-MB-468 cells, various concentrations
Experimental: as §4, §5

[8] = tested on: MLL-AF10 leukemia cells expressing E76K mutant SHP2; assay: Cell viability assay, MLL-AF10 cells expressing E76K mutant SHP2; assay type: cell-based, mouse
Experimental: as §3

[9] = tested on: MOLM-13 AML cells (expressing WT SHP2); assay: Cell viability assay (CellTiter-Glo), MOLM-13; assay type: cell-based; details: regular MOLM-13 cells, 72 h, CRISPR comparison experiment
Experimental: as §4
Finally, we evaluated the selectivity of our top two compounds, #01 and #02, on MOLM-13 AML cells in which SHP2 was depleted using CRISPR-Cas9 knock-out (KO). High-efficiency Cas9-editing MOLM-13 cells were generated by transducingMOLM-13 cells with a Cas9 lentiviral construct. Stable clones were tested for editing efficiency by performing TIDE analysis (45), and these MOLM13-Cas9 cells were transduced with a lentiviral construct containing an AAVS1 single guide RNA (sgRNA) and an mCherry reporter for bulk-sorting of cells with successful AAVS1 editing. […] Cells were treated with inhibitors at various concentrations (ranging from […] to 58 nM) or vehicle control (DMSO) for 72 h, before cell viability was assessed.
as §2, with “software. […]” for “software.”

[10] = tested on: TNBC cells (BT-549 and MDA-MB-468); assay: 11-day colony formation assay; assay type: cell-based; details: 5, 10, or 20 μM, 11 days
Experimental: as §4
MDA-MB-468 and […] triple-negative breast cancer cells were maintained in DMEM+10% FBS supplemented with 1× Penicillin-Streptomycin/L-Glutamine (Omega Scientific). 1.5K cells (in […]) were seeded per well of a standard 24-well tissue culture plate (Falcon) and allowed to adhere for 24 h, before the addition of drug(s) as described. After a further 96 h, media was replaced with fresh media containing the same test compounds and concentrations. After 11 days, media was removed and cells stained with 0.5% Crystal Violet (in 20% methanol) for 20 min with agitation @ 80 rpm. Stain was removed and plates with stained cells were washed by being submerged in excess deionized water and allowed to air dry overnight before imaging.

[11] = tested on: MOLM-13-Cas9-mCherry cells with SHP2 KO; assay: SHP2 CRISPR-Cas9 knockout inhibitor selectivity assay (cell viability); assay type: cell-based; details: MOLM-13-Cas9-mCherry SHP2 KO cells, 72 h
Experimental: Finally, we evaluated the selectivity of our top two compounds, #01 and #02, on MOLM-13 AML cells in which SHP2 was depleted using CRISPR-Cas9 knock-out (KO). High-efficiency Cas9-editing MOLM-13 cells were generated by transducingMOLM-13 cells with a Cas9 lentiviral construct. Stable clones were tested for editing efficiency by performing TIDE analysis (45), and these MOLM13-Cas9 cells were transduced with a lentiviral construct containing an AAVS1 single guide RNA (sgRNA) and an mCherry reporter for bulk-sorting of cells with successful AAVS1 editing. SHP2 KO was achieved by transducing MOLM-13-Cas9-mCherry cells with a lentivirus containing SHP2 dual sgRNAs, resulting in ˜80% reduction of SHP2 protein levels (FIG. 3G). #01, #02, and the SHP2 allosteric inhibitor SHP099 were tested in parallel on regular MOLM-13 cells (expressing WT SHP2) and MOLM-13-Cas9-mCherry cells with SHP2 KO. Cells were treated with inhibitors at various concentrations (ranging from […] to 58 nM) or vehicle control (DMSO) for 72 h, before cell viability was assessed.
High-efficiency Cas9-editing MOLM-13 cells were generated by transducing MOLM-13 cells with the pLenti-Cas9-blasticidin construct (Addgene plasmid #52962) and selecting single stable clones using flow-sorting. Clones were then tested for editing efficiency by performing TIDE analysis (45). These MOLM13-Cas9 cells were then transduced with a lentiviral construct containing an AAVS sgRNA and an mCherry reporter out of frame and downstream of an AAVS sgRNA targeting site. […]
For SHP2 KO, dual sgRNAs targeting SHP2 were cloned in the pLentiGuide puro vector (Addgene plasmid #52963) using a published protocol (50). […] SHP2 KO was evaluated by immunoblotting. […] For SHP2 KO, MOLM-13-Cas9-mCherry cells were seeded in nontreated 6-well-plates ([…] in 2.5 mL), with cell numbers determined by trypan blue using the Countess Cell counter (Thermo Scientific). […] Cell viability was assessed using the ATP-depletion assay CellTiter-Glo® (Promega) as described above, and data were analyzed using GraphPad Prism software.

| IC50 [1] | IC50 [5] | IC50 [9] | SMILES | effect on growth of patient-derived AML samples [2] | ERK1/2 activation (p-ERK1/2 levels) [3] | ERK1/2 activation (p-ERK1/2 levels) [4] | effect on TNBC cell viability [6] | effect on TNBC cell viability [7] | cell viability IC50 [8] | effect on colony formation [10] | effect on viability of SHP2 KO cells [11] |
| --- | --- | --- | --- | --- | --- | --- | --- | --- | --- | --- | --- |
| 33 µM | – | – | Cc1nc(N2CCC3(CC2)CO[C@@H](C)[C@H]3N)c(CO)nc1-c1cccc(Cl)c1Cl [RMC-4550, reference compound] | only affected the growth of sample 2 | a decrease in p-ERK1/2 levels was not detectable | highly effective in impeding ERK1/2 activation | – | – | – | – | – |
| – | 4 µM | 9.4 µM | CC1(N)CCN(c2cnc(-c3cccc(Cl)c3Cl)c(N)n2)CC1 [SHP099, reference compound] | – | – | – | very minor effect on TNBC cell viability | very minor effect on TNBC cell viability | insufficient for an IC50 value to be determined | very weak effect on colony formation | either no effect, or a greatly reduced effect |
